Measured values as given in patent US20220323383A1, “SMALL-MOLECULAR ADJUVANTS AND IMPLEMENTATIONS THEREOF” (JAWAHARLAL NEHRU CENTRE FOR ADVANCED SCIENTIFIC RESEARCH, priority 2019, published 2022).
Several values for one entry are separate records, joined by “and”; a condition that tells them apart may be missing. Identical values can stand only once. Like-named read-outs stand apart in the source and are kept apart here.

How the values were obtained:
Type in all cases: cell-based
A. baumannii R674 [1] = test: Individual antibacterial activity (MIC) of adjuvants; settings: adjuvant alone; A. baumannii R674
Method: (§1) The combination efficacy with antibiotics from different classes and individual antibacterial activity of the synthesized adjuvants was evaluated against the above mentioned MDR and NDM-1 strains of Gram-negative bacteria. All the bacteria were grown in peptone. The bacterial samples were freeze dried and stored at −80° C. 3 μl of these stocks were added to 3 mL of peptone and the culture was grown for 6 h at 37° C. prior to the experiments.
(§2) All synthesized compounds were assayed for their antibacterial activity in combination with antibiotics in a modified chequerboard micro-dilution broth format. Stock solutions were made by serially diluting the compounds using autoclaved millipore water. The bacterial freeze dried stock samples were stored at −80° C. About 3 μL of these stocks were added to about 3 mL of the respective broth and the culture was grown for about 6 h at about 37° C. with prior to the experiments. This 6 h grown culture gives about 10^8 cfu/mL in case of A. baumannii R674, P. aeruginosa R590, E. coli R3336 and K. pneumoniae R3934 which were determined by spread plating method. This 6 h grown culture was diluted to give effective cell concentration of 10^5 cfu/mL, and then used for the chequerboard assay. Adjuvants and antibiotics were serially diluted in two-fold, in sterile millipore water. 25 μL of these serial dilutions of the antibiotics and 25 μL of compounds were added to the wells of 96 well plate followed by the addition of about 150 μL of bacterial solution (˜10^5 cfu/mL). The plates were then incubated at about 37° C., 150 rpm in the incubator and O.D at 600 nm was recorded at 24 h using TECAN (Infinite series, M200 pro) Plate Reader. The wells with similar OD as the media control contained the required concentration of the antibiotic and adjuvant for antibacterial efficacy. The potentiation ability of the adjuvants was determined by calculating the potentiation factor and the Fractional Inhibitory concentration (FIC) index. Fractional Inhibitory Concentration (FIC) is expressed as, FIC=[X]/MICX, where [X] is the lowest inhibitory concentration of antibiotic in the presence of the adjuvant. Whereas FIC index is expressed as, FICI=FICantibiotic+FICadjuvant. The values of FIC index give an insight about the nature of the combination. Potentiation factor which means fold-reduction in the MIC of the antibiotic, when used in combination with the adjuvant was also determined. Potentiation factor=[Minimum inhibitory concentration (MIC) of antibiotic in absence of adjuvant]/[MIC of antibiotic in presence of adjuvant]. […] The combination efficacies of adjuvants with various antibiotics are furnished in Table 1. It should be noted that various other resistant strains of bacteria (Gram-positive and Gram-negative) can be tested with a number of other antibiotics to check the potentiation capacity of the adjuvants.

P. aeruginosa R590 [2] = test: as above; settings: adjuvant alone; P. aeruginosa R590
Method: as §1, §2

A. baumannii R674 [3] = test: Chequerboard combination efficacy of adjuvant with antibiotics
Method: (§3) All the solvents were of reagent grade, which were distilled and dried before its use. All the reagents were purchased from Sigma-Aldrich, Alfa-Aesar, S.D. Fine, Avra and Spectrochem, and were used without further purification. Analytical thin layer chromatography (TLC) was performed on E. Merck TLC plates pre-coated with silica gel 60 F254 and visualization was carried out using UV light and Iodine. Column chromatography was performed on silica gel (60-120 mesh) using different ratio of chloroform and methanol solvent system. Nuclear magnetic resonance spectra were recorded on Bruker (AV-400) 400 MHz spectrometer in deuterated solvents. Mass spectra were obtained using 6538-UHD Accurate mass Q-TOF LC-MS instrument. For optical density measurement during bacteriology experiments, Tecan Infinite Pro series M200 Microplate Reader was used. Bacterial strains, A. baumannii (R674), P. aeruginosa (R590), E. coli (R3336) and K. pneumoniae (R3934) were used for the studies.
as §1, §2

P. aeruginosa R590 [4] = test: as above
Method: as §3, §1, §2

human RBCs = test: Haemolytic activity; settings: concentration at which 50% of human blood cells are lysed; 1 h at 37° C.
Method: Erythrocytes were isolated from freshly drawn, heparanized human blood and re-suspended to 5 vol % in PBS (pH 7.4). In a 96-well microtiter plate, 150 μl of erythrocyte suspension was added to 50 μl of serially diluted compound. Two controls were made, one without compound and other with 50 μl of 1 vol % solution of Triton X-100. The plate was incubated for 1 h at 37° C. The plate was then centrifuged at 3,500 rpm for 5 min, 100 μl of the supernatant from each well was transferred to a fresh 96-well microtiter plate, and A540 was measured. Percentage of hemolysis was determined as (A−A0)/(Atotal−A0)×100, where A is the absorbance of the test well, A0 the absorbance of the negative controls (without compound), and Atotal the absorbance of 100% hemolysis wells (with Triton X-100), all at 540 nm.
Toxicity studies of the compounds were done on freshly drawn human RBCs. Toxicity of the compounds were defined by their HC50 values (Table 2), i.e. the concentration of compound at which 50% of the blood cells are lysed.

[5] = antibiotic Rifampicin, P. aeruginosa R590
[6] = antibiotic Tetracycline, P. aeruginosa R590

Row | SMILES | MIC against clinical isolates of bacteria (A. baumannii R674 [1]) [µg/mL] | MIC against clinical isolates of bacteria (P. aeruginosa R590 [2]) [µg/mL] | FICI (A. baumannii R674 [3]; antibiotic Rifampicin) | MIC of antibiotic in presence of adjuvant (A. baumannii R674 [3]; antibiotic Rifampicin) [µg/mL] | Potentiation factor (A. baumannii R674 [3]; antibiotic Rifampicin) | MIC of antibiotic in presence of adjuvant (A. baumannii R674 [3]; antibiotic Tetracycline) [µg/mL] | Potentiation factor (A. baumannii R674 [3]; antibiotic Tetracycline) | FICI (P. aeruginosa R590 [4]) | MIC of antibiotic in presence of adjuvant (P. aeruginosa R590 [4]) | Potentiation factor (P. aeruginosa R590 [4]; [5]) | Potentiation factor (P. aeruginosa R590 [4]; [6]) | HC50 (human RBCs) [µg/mL] | FICI (P. aeruginosa R590 [4]; [5]) | MIC of antibiotic in presence of adjuvant (P. aeruginosa R590 [4]; [5]) [µg/mL] | FICI (P. aeruginosa R590 [4]; [6]) | MIC of antibiotic in presence of adjuvant (P. aeruginosa R590 [4]; [6]) [µg/mL] | FICI (A. baumannii R674 [3]; antibiotic Tetracycline)
1 | NCCCN(CCCN)C(=O)c1ccc(-c2ccccc2)cc1.O=C(O)C(F)(F)F.O=C(O)C(F)(F)F [Compound 3] | >512 | >512 | <0.5 | 16 | 4 | >64 | <2 | <0.5 | 32 µg/mL and >64 µg/mL | 4 | <4 | >1024 | – | – | – | – | –
2 | NCCCC[C@H](N)C(=O)NCCCN(CCCNC(=O)[C@@H](N)CCCCN)C(=O)CC(c1ccccc1)c1ccccc1 [Compound 8, N,N-bis-[(6-(^LLys)amido)propyl] 3,3-diphenyl propanamide tetrakis(trifluoroacetate)] | >512 | >512 | <0.19 | 4 | 16 | >64 | <2 | – | – | 64 | 4 | >1024 | <0.14 | 2 | <0.375 | 64 | –
3 | CC(C)(C)OC(=O)NC(Cc1c[nH]c2ccccc12)C(=O)N(CCCN)CCCN.O=C(O)C(F)(F)F.O=C(O)C(F)(F)F.O=C(O)C(F)(F)F (stereo not shown) [Compound 5, N,N-bis((3-amino)propyl) 2′-(Boc-amino), 3′-indolo propanamide tris(trifluoroacetate)] | >512 | >512 | <0.375 | 8 | 8 | – | <2 | – | – | 16 | <4 | >1024 | <0.3125 | 8 | – | >64 | –
4 | NCCCN(CCCN)C(=O)Cc1ccccc1.O=C(O)C(F)(F)F.O=C(O)C(F)(F)F [Compound 1, N,N-bis((3-amino)propyl)phenyl ethanamide bis(trifluoroacetate)] | >512 | – | <0.75 | 32 | 2 | 64 | 2 | – | – | – | – | >1024 | – | – | – | – | <0.5
5 | NCCCC[C@H](N)C(=O)NCCCN(CCCNC(=O)[C@@H](N)CCCCN)C(=O)Cc1cccc2ccccc12 [Compound 7, N,N-bis-[(6-(^LLys)amido)propyl] naphthyl ethanamide tetrakis(trifluoroacetate)] | >512 | >512 | <0.25 | 8 | 8 | 32 | 4 | – | – | 32 | 4 | >1024 | <0.28 | 4 | <0.5 | 64 | <0.5
6 | NCCCC[C@H](N)C(=O)NCCCN(CCCNC(=O)[C@@H](N)CCCCN)CC(=O)NC1C2CC3CC(C2)CC1C3.O=C(O)C(F)(F)F.O=C(O)C(F)(F)F.O=C(O)C(F)(F)F.O=C(O)C(F)(F)F.O=C(O)C(F)(F)F (stereo partly shown) [Compound 9] | >512 | >512 | <0.14 | 1 | 64 | 16 | 8 | – | – | 256 | 16 | >1024 | <0.13 | 0.5 | <0.19 | 16 | <0.25
7 | NCCCCCCN(CCCCCCN)C(=O)Cc1cccc2ccccc12 [Compound 10, N,N-bis-[(6-amino)hexyl] naphthyl ethanamide bistrifluoroacetate] | >512 | >512 | <0.14 | 1 | 64 | 16 | 8 | – | – | 128 | 8 | >1024 | <0.133 | 1 | <0.375 | 32 | <0.375
8 | NCCCCCCN(CCCCCCN)CC(=O)NC1C2CC3CC(C2)CC1C3.O=C(O)C(F)(F)F.O=C(O)C(F)(F)F.O=C(O)C(F)(F)F (stereo not shown) [Compound 12, N-(adamantan-2-yl)-2-[N′,N′-{bis-(6-amino)hexyl}amino] ethanamide tristrifluoroacetate] | 64 | 64 | <0.252 | <0.125 | >512 | 16 | 8 | – | – | 1024 | 4 | >1024 | 0.251 | 0.125 | 0.75 | 64 | 0.625
9 | NCCCN(CCCN)C(=O)CC(c1ccccc1)c1ccccc1.O=C(O)C(F)(F)F.O=C(O)C(F)(F)F [Compound 4, N,N-bis((3-amino)propyl)3,3-diphenyl propanamide bis(trifluoroacetate)] | >512 | >512 | <0.26 | 1 | 64 | 32 | 4 | – | – | 32 | 4 | >1024 | <0.28 | 4 | <0.5 | 64 | <0.5
